According to patent publication US12509444B2, “Compounds and methods for CD73 modulation and indications therefor” (Plexxikon Inc., priority 2019, dated 2025):

Legend:
[1] = molecular target: T1, Human CD73 (amino acid residues 27-549) (Homo sapiens, UniProt P21589); assay: CD73 enzymatic assay (luciferase-based indirect assay, CellTiter-Glo); format: biochemical; settings: 0.4 nM CD73, 150 μM AMP, 1 hour at room temperature
T1 construct: Human CD73 (amino acid residues 27-549); His tag (N); made in house; host or cells: E. coli
T1 sequence (P21589 27-549): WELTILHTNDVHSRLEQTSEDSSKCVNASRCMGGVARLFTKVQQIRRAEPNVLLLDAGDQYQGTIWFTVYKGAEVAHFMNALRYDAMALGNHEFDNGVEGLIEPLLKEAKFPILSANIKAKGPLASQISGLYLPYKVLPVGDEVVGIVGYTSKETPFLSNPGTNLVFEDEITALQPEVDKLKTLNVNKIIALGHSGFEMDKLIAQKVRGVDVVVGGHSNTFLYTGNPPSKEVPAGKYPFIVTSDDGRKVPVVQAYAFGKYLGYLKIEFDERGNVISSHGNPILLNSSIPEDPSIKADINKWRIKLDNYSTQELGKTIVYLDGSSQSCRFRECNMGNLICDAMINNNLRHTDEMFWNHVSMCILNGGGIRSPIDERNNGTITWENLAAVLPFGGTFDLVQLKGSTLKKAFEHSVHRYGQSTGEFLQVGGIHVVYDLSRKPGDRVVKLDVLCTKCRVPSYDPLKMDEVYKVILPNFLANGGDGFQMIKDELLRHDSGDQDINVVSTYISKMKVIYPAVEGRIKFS
Outline: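 His-tagged human CD73 (27-549) from E. coli, 0.4 nM, with 150 μM AMP in 50 mM HEPES pH 7.4, 0.01% Tween 20; 1 h at room temperature. AMP remaining read by CellTiter-Glo 2.0 luminescence with 1 μM final ATP after 30 min. IC50 from nonlinear regression of % inhibition.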

human CD73 = molecular target: T2, human CD73 (Homo sapiens, UniProt P21589); assay: Inhibitor activity against CD73 in cell based assay (CD73 expressing CHO-K1 cells); settings: CHO-K1 cells expressing human CD73, 150 μM AMP, 4 hours of incubation; read-out: CHO-K1 CELL VARIANT: CD73 IC50
T2 construct: expressed in transfected cells
T2 sequence (P21589 27-549): T1 sequence (P21589 27-549)
Outline: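 Stably transfected CHO-K1 cells expressing human CD73 (1×10^4/well) incubated 4 h with compound (8-point 1:3 titration, top 10 μM final, 0.2% DMSO) and 150 μM AMP. Residual AMP in supernatant measured by CellTiter-Glo luminescence with 1 μM ATP after 30 min at room temperature; IC50 by nonlinear regression of percent inhibition vs high/low controls.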

SMILES	IC50 [1]	IC50 (human CD73)
O=C(NC1CC2C(C1)C2(F)F)O[C@@H]1CCN(c2cnn(CCO)c(=O)c2Cl)C1 (stereo partly drawn) [P-0453, (R)-1-(5-chloro-1-(2-hydroxyethyl)-6-oxo-1,6-dihydropyridazin-4-yl)pyrrolidin-3-yl (6,6-difluorobicyclo[3.1.0]hexan-3-yl)carbamate]	0.001 to 10 µM	0.001 to 10 µM
O=C(N[C@@H]1CCC(F)(F)C1)O[C@@H]1CCN(c2cn[nH]c(=O)c2Cl)C1 [P-0454, (R)-1-(5-chloro-6-oxo-1,6-dihydropyridazin-4-yl)pyrrolidin-3-yl ((R)-3,3-difluorocyclopentyl)carbamate]	0.001 to 10 µM	0.001 to 10 µM
O=C(N[C@H]1CCC[C@H]1O)O[C@@H]1CCN(c2cn[nH]c(=O)c2Cl)C1 [P-0455, (R)-1-(5-chloro-6-oxo-1,6-dihydropyridazin-4-yl)pyrrolidin-3-yl ((1S,2R)-2-hydroxycyclopentyl)carbamate]	0.001 to 10 µM	10 to 100 µM
CCOC(=O)[C@@H]1CCC[C@H]1NC(=O)O[C@@H]1CCN(c2cn[nH]c(=O)c2Cl)C1 [P-0456, ethyl (1R,2R)-2-(((((R)-1-(5-chloro-6-oxo-1,6-dihydropyridazin-4-yl)pyrrolidin-3-yl)oxy)carbonyl)amino) cyclopentane-1-carboxylate]	0.001 to 10 µM	0.001 to 10 µM
O=C(N[C@@H]1CC[C@@H](O)C1)O[C@@H]1CCN(c2cn[nH]c(=O)c2Cl)C1 [P-0457, (R)-1-(5-chloro-6-oxo-1,6-dihydropyridazin-4-yl)pyrrolidin-3-yl ((1R,3R)-3-hydroxycyclopentyl)carbamate]	0.001 to 10 µM	0.001 to 10 µM
O=C(N[C@H]1CC[C@H](O)C1)O[C@@H]1CCN(c2cn[nH]c(=O)c2Cl)C1 [P-0458, (R)-1-(5-chloro-6-oxo-1,6-dihydropyridazin-4-yl)pyrrolidin-3-yl ((1S,3S)-3-hydroxycyclopentyl)carbamate]	0.001 to 10 µM	0.001 to 10 µM
O=C(N[C@H]1CC[C@@H](O)C1)O[C@@H]1CCN(c2cn[nH]c(=O)c2Cl)C1 [P-0459, (R)-1-(5-chloro-6-oxo-1,6-dihydropyridazin-4-yl)pyrrolidin-3-yl ((1S,3R)-3-hydroxycyclopentyl)carbamate]	0.001 to 10 µM	0.001 to 10 µM
O=C(N[C@@H]1CC[C@H](O)C1)O[C@@H]1CCN(c2cn[nH]c(=O)c2Cl)C1 [P-0460, (R)-1-(5-chloro-6-oxo-1,6-dihydropyridazin-4-yl)pyrrolidin-3-yl ((1R,3S)-3-hydroxycyclopentyl)carbamate]	0.001 to 10 µM	0.001 to 10 µM
O=C(NC1CCCC1=O)O[C@@H]1CCN(c2cn[nH]c(=O)c2Cl)C1 (stereo partly drawn) [P-0461, (R)-1-(5-chloro-6-oxo-1,6-dihydropyridazin-4-yl)pyrrolidin-3-yl (2-oxocyclopentyl)carbamate]	0.001 to 10 µM	0.001 to 10 µM
O=C(NC1CCCC1)O[C@H]1CN(c2cn[nH]c(=O)c2Cl)C[C@@H]1F [P-0462, (3S,4S)-1-(5-chloro-6-oxo-1,6-dihydropyridazin-4-yl)-4-fluoropyrrolidin-3-yl cyclopentylcarbamate]	0.001 to 10 µM	0.001 to 10 µM
O=C(NC1CCC(F)(F)CC1)O[C@H]1CN(c2cn[nH]c(=O)c2Cl)C[C@@H]1F [P-0463, (3S,4S)-1-(5-chloro-6-oxo-1,6-dihydropyridazin-4-yl)-4-fluoropyrrolidin-3-yl (4,4-difluorocyclohexyl)carbamate]	0.001 to 10 µM	0.001 to 10 µM
O=C(NC1CCN(C(=O)C2(c3ccccc3)CC2)CC1)O[C@@H]1CCN(c2cn[nH]c(=O)c2Cl)C1 [P-0464, (R)-1-(5-chloro-6-oxo-1,6-dihydropyridazin-4-yl)pyrrolidin-3-yl (1-(1-phenylcyclopropane-1-carbonyl)piperidin-4-yl)carbamate]	0.001 to 10 µM	0.001 to 10 µM

Other lines, results leading:

IC50 [1]	IC50 (human CD73)	SMILES
0.001 to 10 µM	0.001 to 10 µM	O=C(NC1CCN(C(=O)C2(c3cccc(Br)c3)CC2)CC1)O[C@@H]1CCN(c2cn[nH]c(=O)c2Cl)C1 [P-0465, (R)-1-(5-chloro-6-oxo-1,6-dihydropyridazin-4-yl)pyrrolidin-3-yl (1-(1-(3-bromophenyl)cyclopropane-1-carbonyl)piperidin-4-yl)carbamate]
0.001 to 10 µM	0.001 to 10 µM	Cc1noc(C)c1CC(=O)N1CCC(NC(=O)O[C@@H]2CCN(c3cn[nH]c(=O)c3Cl)C2)CC1 [P-0466, (R)-1-(5-chloro-6-oxo-1,6-dihydropyridazin-4-yl)pyrrolidin-3-yl (1-(2-(3,5-dimethylisoxazol-4-yl)acetyl)piperidin-4-yl)carbamate]
0.001 to 10 µM	0.001 to 10 µM	O=C(N[C@@H]1CCC(F)(F)C1)O[C@@H]1CCN(c2cnn(CCO)c(=O)c2Cl)C1 [P-0467, (R)-1-(5-chloro-1-(2-hydroxyethyl)-6-oxo-1,6-dihydropyridazin-4-yl)pyrrolidin-3-yl ((R)-3,3-difluorocyclopentyl)carbamate]
0.001 to 10 µM	0.001 to 10 µM	NCCn1ncc(N2CC[C@@H](OC(=O)N[C@@H]3CCC(F)(F)C3)C2)c(Cl)c1=O [P-0468, (R)-1-(1-(2-aminoethyl)-5-chloro-6-oxo-1,6-dihydropyridazin-4-yl)pyrrolidin-3-yl ((R)-3,3-difluorocyclopentyl)carbamate]
0.001 to 10 µM	0.001 to 10 µM	O=C(N[C@@H]1CCC[C@H]1C(=O)O)O[C@@H]1CCN(c2cn[nH]c(=O)c2Cl)C1 [P-0469, (1R,2R)-2-(((((R)-1-(5-chloro-6-oxo-1,6-dihydropyridazin-4-yl)pyrrolidin-3-yl)oxy)carbonyl)amino) cyclopentane-1-carboxylic acid]
0.001 to 10 µM	0.001 to 10 µM	O=C(N[C@H]1CCC[C@@H]1O)O[C@@H]1CCN(c2cn[nH]c(=O)c2Cl)C1 [P-0471, (R)-1-(5-chloro-6-oxo-1,6-dihydropyridazin-4-yl)pyrrolidin-3-yl ((1S,2S)-2-hydroxycyclopentyl)carbamate]
0.001 to 10 µM	0.001 to 10 µM	CC(C)(C(=O)N1CCC(NC(=O)O[C@@H]2CCN(c3cn[nH]c(=O)c3Cl)C2)CC1)c1ccc(F)cc1 [P-0472, (R)-1-(5-chloro-6-oxo-1,6-dihydropyridazin-4-yl)pyrrolidin-3-yl (1-(2-(4-fluorophenyl)-2-methylpropanoyl)piperidin-4-yl)carbamate]
0.001 to 10 µM	0.001 to 10 µM	N#Cc1c(N2CC[C@@H](OC(=O)NC3CCCCC3)C2)cnn(CCO)c1=O [P-0473, (R)-1-(5-cyano-1-(2-hydroxyethyl)-6-oxo-1,6-dihydropyridazin-4-yl)pyrrolidin-3-yl cyclohexylcarbamate]
0.001 to 10 µM	0.001 to 10 µM	O=C(NC1CCC(F)(F)CC1)O[C@H]1CN(c2cnn(CCO)c(=O)c2Cl)C[C@@H]1F [P-0474, (3S,4S)-1-(5-chloro-1-(2-hydroxyethyl)-6-oxo-1,6-dihydropyridazin-4-yl)-4-fluoropyrrolidin-3-yl (4,4-difluorocyclohexyl)carbamate]
0.001 to 10 µM	0.001 to 10 µM	O=C(NC1CCCC1)O[C@H]1CN(c2cnn(CCO)c(=O)c2Cl)C[C@@H]1F [P-0475, (3S,4S)-1-(5-chloro-1-(2-hydroxyethyl)-6-oxo-1,6-dihydropyridazin-4-yl)-4-fluoropyrrolidin-3-yl cyclopentylcarbamate]
0.001 to 10 µM	0.001 to 10 µM	N#CC1(NC(=O)O[C@@H]2CCN(c3cnn(CCO)c(=O)c3Cl)C2)CCCC1 [P-0476, (R)-1-(5-chloro-1-(2-hydroxyethyl)-6-oxo-1,6-dihydropyridazin-4-yl)pyrrolidin-3-yl (1-cyanocyclopentyl)carbamate]
0.001 to 10 µM	0.001 to 10 µM	O=C(N[C@@H]1CCC[C@H]1O)O[C@@H]1CCN(c2cnn(CCO)c(=O)c2Cl)C1 [P-0477, (R)-1-(5-chloro-1-(2-hydroxyethyl)-6-oxo-1,6-dihydropyridazin-4-yl)pyrrolidin-3-yl ((1R,2R)-2-hydroxycyclopentyl)carbamate]
0.001 to 10 µM	0.001 to 10 µM	O=C(N[C@@H]1CCC[C@@H]1C(F)(F)F)O[C@@H]1CCN(c2cnn(CCO)c(=O)c2Cl)C1 [P-0478, (R)-1-(5-chloro-1-(2-hydroxyethyl)-6-oxo-1,6-dihydropyridazin-4-yl)pyrrolidin-3-yl ((1R,2S)-2-(trifluoromethyl)cyclopentyl) carbamate]
0.001 to 10 µM	0.001 to 10 µM	O=C(NC1CCCC(F)(F)C1)O[C@@H]1CCN(c2cnn(CCO)c(=O)c2Cl)C1 (stereo partly drawn) [P-0479, (R)-1-(5-chloro-1-(2-hydroxyethyl)-6-oxo-1,6-dihydropyridazin-4-yl)pyrrolidin-3-yl (3,3-difluorocyclohexyl)carbamate]
